In experiment [1] the target is T1, SMARCA4-HiBiT HeLa cells (protein which is expressed from the SMARCA4 gene) (Homo sapiens, UniProt P51532).
T1 construct: protein which is expressed from the SMARCA2 and SMARCA4 genes; host or cells: HeLa (SMARCA4-HiBiT engineered line)
Kind of experiment: SMARCA4 degradation assay (HiBiT-fusion HeLa cell line, 24 h, luminescence). The experiment is classed as cell-based. The procedure, abridged:
(§1)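 SMARCA2- or SMARCA4-HiBiT HeLa cells seeded overnight at 37° C, then given compound as a 10-point dilution (typically 10 μM to 300 pM) for 24 h at 37° C. Protein level read by HiBiT lytic detection luminescence; DC50 from dose-response curves; degradation also scored at 1 μM.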
For orientation: The HiBiT peptide binds its large partner to form an active luciferase.

Experiment [2] concerns the target T2, SMARCA2-HiBiT HeLa cells (protein which is expressed from the SMARCA2 gene) (Homo sapiens, UniProt P51531).
T2 construct: protein which is expressed from the SMARCA2 and SMARCA4 genes; host or cells: HeLa (SMARCA2-HiBiT engineered line)
Nature of the experiment: SMARCA2 degradation assay (HiBiT-fusion HeLa cell line, 24 h, luminescence). It is filed as cell-based. The procedure, abridged: as §1

T2 sequence (P51531 whole entry): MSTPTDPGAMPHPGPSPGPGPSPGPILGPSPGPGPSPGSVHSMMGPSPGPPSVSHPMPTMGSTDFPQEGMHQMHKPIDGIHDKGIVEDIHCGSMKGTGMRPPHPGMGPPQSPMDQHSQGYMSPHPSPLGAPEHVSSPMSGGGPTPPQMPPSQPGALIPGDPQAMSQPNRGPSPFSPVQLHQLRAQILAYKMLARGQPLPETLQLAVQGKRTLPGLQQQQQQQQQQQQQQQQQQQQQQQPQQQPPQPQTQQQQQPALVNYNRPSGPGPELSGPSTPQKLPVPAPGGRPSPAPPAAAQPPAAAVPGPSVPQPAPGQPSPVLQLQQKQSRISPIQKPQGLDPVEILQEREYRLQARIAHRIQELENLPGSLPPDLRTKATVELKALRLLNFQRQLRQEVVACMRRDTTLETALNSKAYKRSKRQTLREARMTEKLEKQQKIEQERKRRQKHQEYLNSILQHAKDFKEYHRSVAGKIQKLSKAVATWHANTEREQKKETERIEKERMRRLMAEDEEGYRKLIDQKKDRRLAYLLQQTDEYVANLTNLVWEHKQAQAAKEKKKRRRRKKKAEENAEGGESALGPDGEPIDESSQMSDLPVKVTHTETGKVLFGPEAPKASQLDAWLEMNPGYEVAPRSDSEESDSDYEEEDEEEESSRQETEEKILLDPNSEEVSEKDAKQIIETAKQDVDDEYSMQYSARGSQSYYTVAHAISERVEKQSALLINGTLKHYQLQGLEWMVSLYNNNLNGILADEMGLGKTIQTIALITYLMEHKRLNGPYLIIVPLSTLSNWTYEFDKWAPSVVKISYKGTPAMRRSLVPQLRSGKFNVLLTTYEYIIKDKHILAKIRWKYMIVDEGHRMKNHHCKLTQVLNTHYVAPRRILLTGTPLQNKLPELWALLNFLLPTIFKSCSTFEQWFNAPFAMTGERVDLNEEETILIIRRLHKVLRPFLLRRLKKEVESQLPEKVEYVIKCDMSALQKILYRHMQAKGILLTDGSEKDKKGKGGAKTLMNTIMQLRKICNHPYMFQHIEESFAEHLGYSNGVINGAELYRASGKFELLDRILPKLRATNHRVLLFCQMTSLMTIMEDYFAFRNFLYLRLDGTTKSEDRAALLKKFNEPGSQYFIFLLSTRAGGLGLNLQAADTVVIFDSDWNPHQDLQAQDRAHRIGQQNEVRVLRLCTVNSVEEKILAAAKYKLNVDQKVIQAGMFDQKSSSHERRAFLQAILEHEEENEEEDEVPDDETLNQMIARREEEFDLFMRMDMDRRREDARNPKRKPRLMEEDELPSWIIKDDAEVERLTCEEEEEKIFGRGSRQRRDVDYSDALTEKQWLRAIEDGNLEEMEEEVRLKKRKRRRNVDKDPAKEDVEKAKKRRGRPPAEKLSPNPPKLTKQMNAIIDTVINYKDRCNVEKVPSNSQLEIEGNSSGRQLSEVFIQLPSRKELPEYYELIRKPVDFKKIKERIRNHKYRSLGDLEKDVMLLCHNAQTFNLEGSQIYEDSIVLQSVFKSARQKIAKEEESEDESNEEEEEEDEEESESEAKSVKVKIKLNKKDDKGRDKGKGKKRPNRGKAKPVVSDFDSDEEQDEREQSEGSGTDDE
T1 sequence (P51532 whole entry): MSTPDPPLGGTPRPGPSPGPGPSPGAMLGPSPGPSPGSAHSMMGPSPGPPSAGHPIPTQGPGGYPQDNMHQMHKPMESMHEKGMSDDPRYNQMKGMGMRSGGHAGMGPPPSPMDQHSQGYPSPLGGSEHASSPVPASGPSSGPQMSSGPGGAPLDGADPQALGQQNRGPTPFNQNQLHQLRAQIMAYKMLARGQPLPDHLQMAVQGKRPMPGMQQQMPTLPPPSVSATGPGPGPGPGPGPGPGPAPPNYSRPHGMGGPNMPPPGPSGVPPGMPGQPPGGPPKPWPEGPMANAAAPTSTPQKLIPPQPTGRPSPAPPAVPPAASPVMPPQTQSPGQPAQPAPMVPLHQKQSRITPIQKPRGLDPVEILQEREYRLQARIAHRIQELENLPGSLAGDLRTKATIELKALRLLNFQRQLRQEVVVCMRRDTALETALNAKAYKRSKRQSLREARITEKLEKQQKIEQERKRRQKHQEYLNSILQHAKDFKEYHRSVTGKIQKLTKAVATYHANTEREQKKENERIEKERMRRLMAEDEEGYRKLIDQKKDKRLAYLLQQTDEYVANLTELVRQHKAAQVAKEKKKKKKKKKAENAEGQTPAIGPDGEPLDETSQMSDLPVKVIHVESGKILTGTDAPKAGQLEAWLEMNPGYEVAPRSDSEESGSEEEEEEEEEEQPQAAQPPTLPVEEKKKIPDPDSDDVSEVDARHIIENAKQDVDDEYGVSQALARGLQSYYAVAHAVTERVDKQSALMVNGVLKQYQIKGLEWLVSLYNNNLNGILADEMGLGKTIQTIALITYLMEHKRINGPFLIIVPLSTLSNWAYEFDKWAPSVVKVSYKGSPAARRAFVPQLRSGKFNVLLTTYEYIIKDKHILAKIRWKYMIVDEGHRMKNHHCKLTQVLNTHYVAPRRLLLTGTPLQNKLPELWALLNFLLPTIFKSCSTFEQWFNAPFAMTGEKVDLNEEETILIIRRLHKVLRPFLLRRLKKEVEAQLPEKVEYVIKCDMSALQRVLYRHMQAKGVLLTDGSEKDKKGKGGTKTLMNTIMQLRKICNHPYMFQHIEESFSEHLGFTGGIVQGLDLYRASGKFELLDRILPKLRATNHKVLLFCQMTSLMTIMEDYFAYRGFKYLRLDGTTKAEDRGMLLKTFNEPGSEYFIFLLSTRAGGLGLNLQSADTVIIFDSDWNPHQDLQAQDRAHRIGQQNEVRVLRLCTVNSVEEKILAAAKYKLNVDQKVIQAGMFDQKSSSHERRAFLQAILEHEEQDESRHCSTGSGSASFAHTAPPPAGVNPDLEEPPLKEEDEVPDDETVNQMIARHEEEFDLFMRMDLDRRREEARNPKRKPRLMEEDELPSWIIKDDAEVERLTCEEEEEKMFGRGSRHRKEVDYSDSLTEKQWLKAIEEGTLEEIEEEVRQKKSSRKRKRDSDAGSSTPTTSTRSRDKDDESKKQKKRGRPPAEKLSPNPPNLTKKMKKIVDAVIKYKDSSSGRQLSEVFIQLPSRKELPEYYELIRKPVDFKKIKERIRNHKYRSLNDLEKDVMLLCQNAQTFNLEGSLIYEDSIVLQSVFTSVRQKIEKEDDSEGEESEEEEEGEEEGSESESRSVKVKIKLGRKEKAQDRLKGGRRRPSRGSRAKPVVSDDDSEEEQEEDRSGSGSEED

Take `Nc1nnc(-c2ccccc2O)cc1N1CCCN(c2ccnc(C#CCNc3cc4ncccn4n3)n2)CC1` [Compound P-120, 2-(6-amino-5-(4-(2-(3-(pyrazolo[1,5-a]pyrimidin-2-ylamino)prop-1-yn-1-yl)pyrimidin-4-yl)-1,4-diazepan-1-yl)pyridazin-3-yl)phenol]: the DC50 in experiment [1] and in experiment [2] was 500 to 5000 nM each time. For the same molecule, the inhibition at 1 µM in experiment [1] (@ 1 μM) was 30 to 70%. Also, the “SMARCA2 % Degradation @ 1 μM” value in experiment [2] (@ 1 μM) is listed as “++ (++=30-70%)”.

As for `CCNC(=O)NCC#Cc1nccc(N2CCCN(c3cc(-c4ccccc4O)nnc3N)CC2)n1` [Compound P-326, 0-[6-amino-5-(4-{2-[3-(3-ethylureido)-1-propynyl]-4-pyrimidinyl}-1,4-diazepan-1-yl)-3-pyridazinyl]phenol], the DC50 in experiment [1] and in experiment [2] was 500 to 5000 nM in each case. In experiment [1] (@ 1 μM), this molecule had an inhibition at 1 µM below 30%. Further, the “SMARCA2 % Degradation @ 1 μM” value in experiment [2] (@ 1 μM) was “++ (++=30-70%)”.

As for `CCN(CC)CC#Cc1nccc(N2CCN(c3cc(-c4ccccc4O)nnc3N)CC[C@H]2C)n1` [Compound P-202], the DC50 in experiment [1] and in experiment [2] was below 50 nM throughout. Besides, in experiment [1] (@ 1 μM), the inhibition at 1 µM was 30 to 70%. In experiment [2] (@ 1 μM), the “SMARCA2 % Degradation @ 1 μM” value is “+++ (+++=>70%)”.

In the case of `C[C@@H]1CCN(c2cc(-c3ccccc3O)nnc2N)CCN1c1ccnc(C#CCN2CC(F)(F)[C@H]2C)n1` [Compound P-271, 0-{5-[(R)-4-(2-{3-[(R)-3,3-difluoro-2-methyl-1-azetidinyl]-1-propynyl}-4-pyrimidinyl)-5-methyl-1,4-diazepan-1-yl]-6-amino-3-pyridazinyl}phenol], the DC50 in experiment [1] and in experiment [2] was 50 to 500 nM throughout. This molecule also yielded an inhibition at 1 µM in experiment [1] (@ 1 μM) below 30%. Also, the “SMARCA2 % Degradation @ 1 μM” value in experiment [2] (@ 1 μM) is listed as “++ (++=30-70%)”.

As to `Nc1nnc(-c2ccccc2O)cc1N1CCCN(c2ccnc(/C=C/CNC(=O)c3cc4ncccn4n3)n2)CC1` [Compound P-112, (E)-N-(3-(4-(4-(3-amino-6-(2-hydroxyphenyl)pyridazin-4-yl)-1,4-diazepan-1-yl)pyrimidin-2-yl)allyl)pyrazolo[1,5-a]pyrimidine-2-carboxamide], the half-maximal degradation concentration (DC50) in experiment [1] and in experiment [2] was 50 to 500 nM each time. This molecule had an inhibition at 1 µM in experiment [1] (@ 1 μM) above 70%. Moreover, the “SMARCA2 % Degradation @ 1 μM” value in experiment [2] (@ 1 μM) was “+++ (+++=>70%)”.

For the molecule `Nc1nnc(-c2ccccc2O)cc1N1CCN(c2ccnc(C#CCNC(=O)c3cc4n(n3)CCOC4)n2)CC1` [Compound P-58, N-(3-(4-(4-(3-amino-6-(2-hydroxyphenyl)pyridazin-4-yl)piperazin-1-yl)pyrimidin-2-yl)prop-2-yn-1-yl)-6,7-dihydro-4H-pyrazolo[5,1-c][1,4]oxazine-2-carboxamide], the DC50 in experiment [1] and in experiment [2] was 50 to 500 nM in each case. Further, the inhibition at 1 µM in experiment [1] (@ 1 μM) lay in the range of 30 to 70%. In addition, in experiment [2] (@ 1 μM), the “SMARCA2 % Degradation @ 1 μM” value is given as “++ (++=30-70%)”.

With `C[C@@H]1CCN(c2cc(-c3ccccc3O)nnc2N)CCN1c1ccnc(C#CC2CC(F)(F)C2)n1` [Compound P-269, 0-{5-[(R)-4-{2-[2-(3,3-difluorocyclobutyl)ethynyl]-4-pyrimidinyl}-5-methyl-1,4-diazepan-1-y1]-6-amino-3-pyridazinyl} phenol], the 50% degradation concentration (DC50) in experiment [1] and in experiment [2] was 50 to 500 nM in each case. Moreover, in experiment [1] (@ 1 μM), the inhibition at 1 µM is above 70%. For the same molecule, the “SMARCA2 % Degradation @ 1 μM” value in experiment [2] (@ 1 μM) is listed as “+++ (+++=>70%)”.

Turning to `Cn1nccc1OCC#Cc1nccc(N2CCCN(c3cc(-c4ccccc4O)nnc3N)CC2)n1` [Compound P-131, 2-(6-amino-5-(4-(2-(3-((1-methyl-1H-pyrazol-5-yl)oxy)prop-1-yn-1-yl)pyrimidin-4-yl)-1,4-diazepan-1-yl)pyridazin-3-yl)phenol], the half-maximal degradation concentration (DC50) in experiment [1] and in experiment [2] was 50 to 500 nM throughout. The inhibition at 1 µM in experiment [1] (@ 1 μM) fell in the range of 30 to 70%. The “SMARCA2 % Degradation @ 1 μM” value in experiment [2] (@ 1 μM) is reported as “++ (++=30-70%)”.

`C[C@@H]1CCN(c2cc(-c3ccccc3O)nnc2N)CCN1c1ccnc(C#CCN2CCOCC2)c1` [Compound P-426, 0-(5-{(R)-5-methyl-4-[2-(3-morpholino-1-propynyl)-4-pyridyl]-1,4-diazepan-1-yl}-6-amino-3-pyridazinyl)phenol]: the DC50 in experiment [1] and in experiment [2] was 50 to 500 nM throughout. The molecule also had an inhibition at 1 µM in experiment [1] (1 μM) of 30 to 70%. In addition, in experiment [2] (1 μM), the “SMARCA2 % Degradation @ 1 μM” value is recorded as “++ (++=30-70%)”.

For `C[C@@H]1CCN(c2cc(-c3ccccc3O)nnc2N)CCN1c1nc(C#CCn2ccnc2)ncc1F` [Compound P-247, o-{5-[(R)-4-{5-fluoro-2-[3-(1-imidazolyl)-1-propynyl]-4-pyrimidinyl}-5-methyl-1,4-diazepan-1-yl]-6-amino-3-pyridaziny1}phenol], the half-maximal degradation concentration (DC50) in experiment [1] and in experiment [2] was 50 to 500 nM throughout. In experiment [1] (@ 1 μM), this molecule registered an inhibition at 1 µM of 30 to 70%. Also, the “SMARCA2 % Degradation @ 1 μM” value in experiment [2] (@ 1 μM) is recorded as “++ (++=30-70%)”.

In the case of `C[C@@H](O)C#Cc1nccc(N2CCCN(c3cc(-c4ccccc4O)nnc3N)CC2)n1` [Compound P-322, 0-[5-(4-{2-[(R)-3-hydroxy-1-butynyl]-4-pyrimidinyl}-1,4-diazepan-1-yl)-6-amino-3-pyridazinyl]phenol], the DC50 in experiment [1] and in experiment [2] was 50 to 500 nM in each case. Further, in experiment [1] (@ 1 μM), the inhibition at 1 µM was 30 to 70%. Moreover, the “SMARCA2 % Degradation @ 1 μM” value in experiment [2] (@ 1 μM) is “++ (++=30-70%)”.

`Nc1nnc(-c2ccccc2O)cc1N1CC2CCC(C1)N2c1nc(C#CCn2ccnc2)ncc1F` [Compound P-224, o-[6-amino-5-(8-{5-fluoro-2-[3-(1-imidazolyl)-1-propynyl]-4-pyrimidinyl}-3,8-diazabicyclo[3.2.1]oct-3-yl)-3-pyridazinyl]phenol]: the DC50 in experiment [1] and in experiment [2] was 50 to 500 nM throughout. The same molecule displayed an inhibition at 1 µM in experiment [1] (@ 1 μM) above 70%. For the same molecule, the “SMARCA2 % Degradation @ 1 μM” value in experiment [2] (@ 1 μM) is on record as “+++ (+++=>70%)”.

Take `Nc1nnc(-c2ccccc2O)cc1N1CCCN(c2ccnc(C#CCN3CCOC3=O)n2)CC1` [Compound P-374, 3-[3-(4-{4-[3-amino-6-(o-hydroxyphenyl)-4-pyridazinyl]-1,4-diazepan-1-yl}-2-pyrimidinyl)-2-propynyl]-1,3-oxazolidin-2-one]: the DC50 in experiment [1] and in experiment [2] was 50 to 500 nM each time. Further, the inhibition at 1 µM in experiment [1] (@ 1 μM) lay within 30 to 70%. For the same molecule, the “SMARCA2 % Degradation @ 1 μM” value in experiment [2] (@ 1 μM) is “+++ (+++=>70%)”.

Turning to `C[C@@H]1CCN(c2cc(-c3ccccc3O)nnc2N)CCN1c1ccnc(C#CCN2CCCCC2)c1` [Compound P-425, 0-(5-{(R)-5-methyl-4-[2-(3-piperidino-1-propynyl)-4-pyridyl]-1,4-diazepan-1-yl}-6-amino-3-pyridazinyl)phenol], the DC50 in experiment [1] and in experiment [2] was below 50 nM throughout. Also, the inhibition at 1 µM in experiment [1] (1 μM) lay within 30 to 70%. For the same molecule, in experiment [2] (1 μM), the “SMARCA2 % Degradation @ 1 μM” value is listed as “++ (++=30-70%)”.

Regarding `C[C@@H]1CCN(c2cc(-c3ccccc3O)nnc2N)CCN1c1ccc(C#N)c(C#CCn2ccnc2)n1` [Compound P-429, 6-{(R)-4-[3-amino-6-(o-hydroxyphenyl)-4-pyridazinyl]-7-methyl-1,4-diazepan-1-y1}-2-[3-(1-imidazolyl)-1-propynyl]nicotinonitrile], the DC50 in experiment [1] and in experiment [2] was 50 to 500 nM in each case. In experiment [1] (1 μM), the inhibition at 1 µM was 30 to 70%. Further, in experiment [2] (1 μM), the “SMARCA2 % Degradation @ 1 μM” value was “+++ (+++=>70%)”.

For the molecule `CC(C#Cc1nccc(N2CCN(c3cc(-c4ccccc4O)nnc3N)CC2)n1)NC(=O)c1cc2ncccn2n1` (stereo not drawn) [Compound P-95, N-(4-(4-(4-(3-amino-6-(2-hydroxyphenyl)pyridazin-4-yl)piperazin-1-yl)pyrimidin-2-yl)but-3-yn-2-yl)pyrazolo[1,5-a]pyrimidine-2-carboxamide], the results for the DC50 in experiment [1] and in experiment [2] were below 50 nM and 50 to 500 nM, respectively. Further, the inhibition at 1 µM in experiment [1] (@ 1 μM) was in the range of 30 to 70%. Further, the “SMARCA2 % Degradation @ 1 μM” value in experiment [2] (@ 1 μM) was “+ (+=<30%)”.

Regarding `Nc1nnc(-c2ccccc2O)cc1N1C2CC1CN(c1ccnc(C#CCNC(=O)c3cc4ncccn4n3)n1)C2` [Compound P-80, N-(3-(4-(6-(3-amino-6-(2-hydroxyphenyl)pyridazin-4-yl)-3,6-diazabicyclo[3.1.1]heptan-3-yl)pyrimidin-2-yl)prop-2-yn-1-yl)pyrazolo[1,5-a]pyrimidine-2-carboxamide], the DC50 in experiment [1] was above 5000 nM; in experiment [2], 500 to 5000 nM. In experiment [1] (@ 1 μM), this molecule returned an inhibition at 1 µM below 30%. Besides, the “SMARCA2 % Degradation @ 1 μM” value in experiment [2] (@ 1 μM) is “+ (+=<30%)”.

For `CN1CCC(C#Cc2nccc(N3CCCN(c4cc(-c5ccccc5O)nnc4N)CC3)n2)CC1` [Compound P-256, o-[6-amino-5-(4-{2-[2-(1-methyl-4-piperidyl)ethynyl]-4-pyrimidinyl}-1,4-diazepan-1-yl)-3-pyridazinyl]phenol], the half-maximal degradation concentration (DC50) was 500 to 5000 nM in experiment [1] and 50 to 500 nM in experiment [2]. The molecule also displayed an inhibition at 1 µM in experiment [1] (@ 1 μM) of 30 to 70%. In addition, in experiment [2] (@ 1 μM), the “SMARCA2 % Degradation @ 1 μM” value is “++ (++=30-70%)”.

On to `C[C@H]1CN(c2ccnc(C#CCn3cccn3)n2)CCN1c1cc(-c2ccccc2O)nnc1N` [Compound P-329, 0-{5-[(S)-2-methyl-4-{2-[3-(1-pyrazolyl)-1-propynyl]-4-pyrimidinyl}-1-piperazinyl]-6-amino-3-pyridazinyl} phenol], for which the DC50 in experiment [1] and in experiment [2] was 50 to 500 nM each time. The same molecule had an inhibition at 1 µM in experiment [1] (@ 1 μM) below 30%. In experiment [2] (@ 1 μM), the “SMARCA2 % Degradation @ 1 μM” value was “++ (++=30-70%)”.

As for `N#Cc1ccc(N2C3CCC2CN(c2cnnc(-c4ccccc4O)c2)C3)nc1C#CCN1CC(F)(F)C1` [Compound P-403, 2-[3-(3,3-difluoro-1-azetidinyl)-1-propynyl]-6-{3-[6-(o-hydroxyphenyl)-4-pyridazinyl]-3,8-diazabicyclo[3.2.1]oct-8-yl} nicotinonitrile], the figures for the half-maximal degradation concentration (DC50) in experiment [1] and in experiment [2] were above 5000 nM and 500 to 5000 nM, respectively.

As a reminder, the DC50 is the concentration giving 50% degradation. One may read the inhibition as how much of the control response was suppressed. Higher therefore signals strong suppression.

For the origin of these results see patent US20260265238A1, “COMPOUNDS AND PHARMACEUTICAL COMPOSITIONS THAT DEGRADE SWI/SNF-RELATED MATRIX-ASSOCIATED ACTIN-DEPENDENT REGULATOR OF CHROMATIN SUBFAMILY A” (Plexium, Inc., priority 2023, published 2026).
